PMC7990499, “eIF2B conformation and assembly state regulate the integrated stress response” (eLife, 2021)
pIC50: −log10 of the molar value.

Biological target: T1, eIF2B decamer, eIF2B(αβδγε)2 (ISRIB pocket at the eIF2Bβ/eIF2Bδ interface) (Homo sapiens, UniProt P49770+Q9UI10)
T1 construct: gene EIF2B2; full eIF2B(αβδγε)2 decamer assembled from purified eIF2Bβγδε and eIF2Bα2; with eIF2Bβ (EIF2B2), with eIF2Bα, eIF2Bγ, eIF2Bε
Assay: fluorescence polarization competition with FAM-ISRIB; also FRET assembly of tetramers (EC50 […]), re-refined cryo-EM model
Type: binding

pIC50: 7.43
SMILES: O=C(COc1ccc(Cl)cc1)N[C@H]1CC[C@H](NC(=O)COc2ccc(Cl)cc2)CC1 [ISRIB]
